Test results: BindingDB's records for doi:10.1021/acs.jmedchem.0c01312 (Jinan University, 2020)
pEC50: −log10 of the molar value.

Test: Inhibition of KRas G12C mutant in human NCI-H1792 cells assessed as antiproliferative activity incubated for 3 days by CellTiter-Glo assay

## C=CC(=O)N1CCN(C(=O)CNc2cc(I)c(Cl)cc2O)CC1
  pEC50: 6.49
